Values of other authors, collected in US9717692B2, “Effervescent formulations comprising dexketoprofen” (priority 2011, dated 2017).

Conditions: Sunshine et al., WO89/046558

C[C@H](C(=O)O)c1cccc(C(=O)c2ccccc2)c1 [Dexketoprofen, (+)-(S)-2-(3-Benzoylphenyl) propionic acid]
effect compared with racemic ketoprofen of the same amount: quicker and stronger effect
